Values quoted from earlier work in patent US20120258202A1, “Compositions and Methods for an Appetite Suppressant and a Nutrient Absorption Blocker with Treatment To Raise Metabolic Rate” (priority 2011, published 2012).

Columns and labels:
[1] = after ORLISTAT was stopped
[2] = laboratory animals
[3] = people taking sibutramine; control 10.0%

Compound: CNCCC(Oc1ccc(C(F)(F)F)cc1)c1ccccc1 (stereo not drawn) [fluoxetine, Fluoxetine]
- interruption of the treatment due to anxiety, insomnia, and nervousness (each) (in vivo): 1-2%
- anorexia (prescribing information, placebo 3%): 10%
- somnolence (prescribing information, placebo 5%): 12%
- anxiety (prescribing information, placebo 6%): 12%
- nausea (prescribing information, placebo 9%): 22%
- insomnia (prescribing information, placebo 10%): 19%

Compound: CCCCCCCCCCC[C@@H](C[C@@H]1OC(=O)[C@H]1CCCCCC)OC(=O)[C@H](CC(C)C)NC=O [orlistat, tetrahydrolipstatin]
- weight regained after drug was stopped, of the weight lost [1]: up to 35%

Compound: CN[C@H]1CC[C@@H](c2ccc(Cl)c(Cl)c2)c2ccccc21 [sertraline, Sertraline]
- body weight [2]: resulted in weight loss

Compound: CC(C)CC(N(C)C)C1(c2ccc(Cl)cc2)CCC1 (stereo not drawn) [sibutramine, Sibutramine]
- cardiovascular events [3]: 11.4%
